Data taken from patent publication US7714151B2, “Aminated isoflavonoid derivatives and uses thereof” (Novogen Research Pty Ltd, priority 2002, dated 2010).
pIC50: −log10 of the molar value. Where two headings read alike, the source gives them in different places.

Legend:
[1] = system: testosterone-induced LNCaP proliferation; test: Androgen inhibition study: testosterone-induced LNCaP proliferation; format: cell-based, human; conditions: for fold better than Cpd. 1 at inhibiting testosterone-induced proliferation: relative to Cpd. 1
Method: The method of Negri-Cesi and Motta (1994) and Negri-Cesi et al. (1999) was followed. Briefly, LNCaP cells were cultured in RPMI supplemented with 10% fetal calf serum and 2 mM L-glutamine at 37° C. under 5% CO2. At day 0 a subconfluent LNCaP culture flask (80%) were harvested by trypsinisation, washed, resuspended in RPMI media completed with charcoal stripped fetal calf serum (RPMIi) and seeded into 12 well plates at 30,000 cells per well (15,000 cells/mL). The plates were cultured at 37° C. with 5% CO2 for 48 hours. On day 2, spent media was carefully aspirated from all plates and then replenished with 2 ml RPMIi containing either testosterone (0.5 pM) as positive control, testosterone plus finasteride (1 uM) as inhibitor control and vehicle as growth control (equivalent concentration of DMSO). Test plates were treated as described above; only serial dilutions of test compounds prepared in RPMIi were used. Concentrations of test compound were chosen based on their cytotoxicity profile as determined in the cell cytotoxicity analysis methods section above i.e. the top concentration used in the LNCaP proliferation assay was determined as the concentration at which cells first appear close to 100% viable along the cytotoxicity curve. This concentration was chosen to ensure that any inhibition of proliferation imparted by the test agent was due to the inhibition of 5′AR and not due to direct killing of the cells. It is important not to disturb cell monolayer during the addition of treatments. On days 5 and 8 the process followed on day 2 was repeated for all plates. On day 11 spent media was aspirated from all wells, cells were washed gently with PBS (500 μl), trypsinised and the cells in each well counted using a haemocytometer. The average cell count and standard deviation was calculated and the result expressed as the % inhibition of testosterone-induced proliferation in comparison with vehicle control.

[2] = system: LNCaP (AR positive Prostate Ca); test: Cell cytotoxicity analysis (MTT), LNCaP; format: cell-based; conditions: Homo sapiens
Source text: (§1) The method of Alley et al. (1988) was followed. Briefly, prior to cytotoxicity screening a growth curve was constructed for each tumour line to be screened to determine growth kinetics, optimal seeding density to yield logarithmic growth over five days, and the corresponding lag time. Spent culture medium was aspirated from a sub-confluent adherent monolayer culture (T-75), the cells trypsinised and resuspended in a minimal volume of culture medium. After counting cells, a 96-well plate was seeded at an appropriate density (100 μl) to yield optimal growth parameters and the plate was then incubated at 37° C. under 5% CO2. After the pre-determined lag-time the plate was treated with either vehicle (negative control) or serial dilutions of the test compound prepared in culture medium, and then incubated for a further five days. MTT (0.5 mg/ml) prepared in PBS was added to all wells and incubated at 37° C. for ˜3 hr. Spent medium was then carefully aspirated and DMSO (150 μt) was added to solubilise cells and the reduced formazan. Absorbance was then read on a SpectraMax plate reader at 570 nm and viable cells in treated plates were expressed as a percentage of cells in control plates.

thromboxane synthase = target: T1, thromboxane synthase (Homo sapiens, UniProt P24557); test: Thromboxane synthase inhibition screening assay in LPS-stimulated monocytes (TXB2 radioimmunoassay); format: cell-based
T1 construct: endogenous in cells; host or cells: human peripheral blood monocytes (elutriated from buffy coat), LPS-stimulated
T1 sequence (P24557 1-533): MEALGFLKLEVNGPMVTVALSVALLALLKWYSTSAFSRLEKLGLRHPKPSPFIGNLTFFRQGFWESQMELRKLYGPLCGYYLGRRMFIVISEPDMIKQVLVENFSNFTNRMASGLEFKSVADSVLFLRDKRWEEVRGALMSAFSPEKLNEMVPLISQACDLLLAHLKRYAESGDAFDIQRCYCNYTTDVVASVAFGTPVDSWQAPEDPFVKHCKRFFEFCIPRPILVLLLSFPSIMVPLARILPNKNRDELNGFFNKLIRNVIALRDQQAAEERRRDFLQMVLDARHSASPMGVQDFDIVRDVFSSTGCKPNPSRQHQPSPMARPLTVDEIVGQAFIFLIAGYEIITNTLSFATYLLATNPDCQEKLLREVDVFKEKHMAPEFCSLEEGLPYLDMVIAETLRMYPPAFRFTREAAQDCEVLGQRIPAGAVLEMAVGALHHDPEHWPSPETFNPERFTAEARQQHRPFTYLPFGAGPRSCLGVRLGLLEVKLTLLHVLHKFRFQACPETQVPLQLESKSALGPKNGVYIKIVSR
Method: (§2) Human buffy coats were obtained from the Red Cross Blood Bank. Buffy coat (50 ml) was diluted 1:2 with sterile phosphate buffered saline (PBS), overlayed onto Lymphoprep density gradient medium and centrifuged at 800 g for 20 min. The mononuclear cell (MNC) layer was removed and washed with PBS and monocyte enriched cells were prepared from MNC by counter-current centrifugal elutriation. Monocytes were then resuspended in RPMI tissue culture medium with 10% foetal calf serum at 1.5×10^6 cells/ml. Test analogues were prepared in DMSO and incubated with monocytes at 37° for 30 min at either 10 or 100 μM. After the 30 min pre-incubation, bacterial lipopolysaccharide (LPS) was added (200 ng/ml) and cells were incubated for a further 18 h at 37° in 5% CO2. After centrifugation, cell-free supernatants were then removed and assayed for either prostaglandin or thromboxane production, as determined by radioimmunoassay. Because TXA2 is labile in aqueous medium, TXB2, the stable hydrolysis product of TXA2, was measured. For each dose (0, 10, 100 μM), incubations were performed in triplicate. Results are expressed as mean±SD, n=3. ANOVA followed by Newman-Keuls multiple comparisons test was used to examine differences between doses and the control values.

all cell lines tested = test: Cell cytotoxicity analysis (MTT), statements over the cell lines tested; format: cell-based, human; conditions: for overall cell killing activity against all cell lines tested: comparison of Cpd. 1, 2 and 3
Source text: as §1

[3] = system: PC3 (AR negative prostate Ca); test: Cell cytotoxicity analysis (MTT), PC3; format: cell-based; conditions: Homo sapiens, 120 h, PC3, five days
Source text: as §1

[4] = system: MDA-MB-468 (ER negative breast Ca); test: Cell cytotoxicity analysis (MTT), MDA-MB-468; format: cell-based; conditions: Homo sapiens, 120 h, MDA-MB-468, five days
Source text: as §1

[5] = system: DU145 (AR negative prostate Ca); test: Cell cytotoxicity analysis (MTT), DU145; format: cell-based; conditions: Homo sapiens
Source text: as §1

[6] = system: NCI-H460 (large cell lung Ca); test: Cell cytotoxicity analysis (MTT), NCI-H460; format: cell-based; conditions: Homo sapiens
Source text: as §1

COX = COX inhibition screening assay in LPS-stimulated monocytes (prostaglandin radioimmunoassay); format: cell-based; conditions: 10 μM, human monocytes
Method: as §2

[7] = Homo sapiens, LNCaP, read-out: IC50 inhibition of testosterone-induced LNCaP proliferation
[8] = Homo sapiens, LNCaP, read-out: IC50 inhibition of testosterone-induced proliferation
[9] = 120 h, LNCaP, five days, MTT, read-out: Cytotoxicity LNCaP Avg.
[10] = 120 h, DU-145, five days, MTT, read-out: Cytotoxicity DU-145 Avg.
[11] = DU-145, read-out: IC50 against DU-145
[12] = 120 h, NCI-H460, five days, MTT, read-out: Cytotoxicity NCI-H460 Avg.

Compound: Oc1ccc(C2COc3cc(O)ccc3C2=NNc2ccccc2)cc1 (stereo not shown) [Cpd. 1]
- pIC50 [1, 7]: 5.65
- pIC50 [1, 8]: 5.65
- pIC50 [2, 9]: 4.79
- pIC50 ([2]; read-out: IC50 against LNCaP): 4.79
- inhibition at 10 µM (thromboxane synthase): 33%
- pIC50 (all cell lines tested; Homo sapiens, cell lines other than LNCaP and DU-145, read-out: Modest activity against the other cell lines tested): < 4.70
- pIC50 [3]: 4.47
- pIC50 [4]: 4.46
- pIC50 [5, 10]: 4.86
- pIC50 [5, 11]: 4.86
- pIC50 [6, 12]: 4.56
- inhibition of COX activity (COX): 100%

Compound: O=[N+]([O-])c1ccc(NN=C2c3ccc(O)cc3OCC2c2ccc(O)cc2)cc1 (stereo not shown) [Cpd. 2]
- pIC50 [1, 7]: > 7.46
- IC50 ([1]; Homo sapiens, LNCaP, read-out: IC50 inhibition of testosterone-induced proliferation (nM)): < 37 nM
- fold better than Cpd. 1 at inhibiting testosterone-induced proliferation [1]: ~60 fold
- pIC50 [2, 9]: 4.29
- inhibition at 10 µM (thromboxane synthase): 27%
- overall cell killing activity against all cell lines tested (all cell lines tested): lowest activity
- pIC50 [3]: 4.35
- pIC50 [4]: 4.58
- pIC50 [5, 10]: 4.34
- pIC50 [6, 12]: 4.49
- inhibition of COX activity (COX): 77%

Compound: Cc1ccc(NN=C2c3ccc(O)cc3OCC2c2ccc(O)cc2)cc1 (stereo not shown) [Cpd. 3]
- pIC50 [1, 7]: 6.17
- pIC50 [1, 8]: 6.17
- fold better than Cpd. 1 at inhibiting testosterone-induced proliferation [1]: 3 fold
- pIC50 [2, 9]: 4.79
- pIC50 ([2]; read-out: IC50 against LNCaP): 4.79
- inhibition at 10 µM (thromboxane synthase): 60%
- overall cell killing activity against all cell lines tested (all cell lines tested): best overall cell killing activity
- pIC50 [3]: 4.55
- pIC50 [4]: 4.65
- pIC50 [5, 10]: 4.72
- pIC50 [5, 11]: 4.72
- pIC50 ([6]; NCI-H460, read-out: activity against NCI-H460): 4.88
- inhibition of COX activity (COX): 100%

Compound: CC(C)(C)NC(=O)[C@H]1CC[C@H]2[C@@H]3CC[C@H]4NC(=O)C=C[C@]4(C)[C@H]3CC[C@]12C [finasteride, reference compound]
- blocking of testosterone-induced proliferation ([1]; 1 μM, inhibitor control): potently blocked
